# Results reported in article PMC4106721, “Structure of a Membrane-Embedded Prenyltransferase Homologous to UBIAD1” (PLoS Biology, 2014).
# Tests used:
# Assay in all cases: isothermal titration calorimetry
# Format in all cases: binding
# AfUbiA [1] = target: T1, AfUbiA (Archaeoglobus fulgidus, UniProt O28625, R22A); details: 2 mM MgCl2, pH 7.5, 25 °C, 4 mM DM
# T1 construct: gene AF_1648; full gene in modified pET vector, N-terminal His-tag removed with TEV protease, expressed in E. coli BL21(DE3), DM-solubilised for ITC or in lipidic cubic phase for crystals; likely monomer
# AfUbiA [2] = target: T2, AfUbiA (Archaeoglobus fulgidus, UniProt O28625, D202A)
# T2 construct: gene AF_1648; full gene in modified pET vector, N-terminal His-tag removed with TEV protease, expressed in E. coli BL21(DE3), DM-solubilised for ITC or in lipidic cubic phase for crystals; likely monomer
# AfUbiA [3] = target: T3, AfUbiA (Archaeoglobus fulgidus, UniProt O28625, D198A)
# T3 construct: gene AF_1648; full gene in modified pET vector, N-terminal His-tag removed with TEV protease, expressed in E. coli BL21(DE3), DM-solubilised for ITC or in lipidic cubic phase for crystals; likely monomer
# AfUbiA [4] = target: T4, AfUbiA (Archaeoglobus fulgidus, UniProt O28625, N68A); details: 2 mM MgCl2, pH 7.5, 25 °C, 4 mM DM
# T4 construct: gene AF_1648; full gene in modified pET vector, N-terminal His-tag removed with TEV protease, expressed in E. coli BL21(DE3), DM-solubilised for ITC or in lipidic cubic phase for crystals; likely monomer
# AfUbiA [5] = target: T5, AfUbiA (Archaeoglobus fulgidus, UniProt O28625, D72A); details: 2 mM MgCl2, pH 7.5, 25 °C, 4 mM DM
# T5 construct: gene AF_1648; full gene in modified pET vector, N-terminal His-tag removed with TEV protease, expressed in E. coli BL21(DE3), DM-solubilised for ITC or in lipidic cubic phase for crystals; likely monomer
# AfUbiA [6] = target: T6, AfUbiA (Archaeoglobus fulgidus, UniProt O28625, K146A); details: 2 mM MgCl2, pH 7.5, 25 °C, 4 mM DM
# T6 construct: gene AF_1648; full gene in modified pET vector, N-terminal His-tag removed with TEV protease, expressed in E. coli BL21(DE3), DM-solubilised for ITC or in lipidic cubic phase for crystals; likely monomer
# AfUbiA [7] = target: T7, AfUbiA (Archaeoglobus fulgidus, UniProt O28625)
# T7 construct: gene AF_1648; full gene in modified pET vector, N-terminal His-tag removed with TEV protease, expressed in E. coli BL21(DE3), DM-solubilised for ITC or in lipidic cubic phase for crystals; likely monomer
# T7 sequence (O28625 1-303): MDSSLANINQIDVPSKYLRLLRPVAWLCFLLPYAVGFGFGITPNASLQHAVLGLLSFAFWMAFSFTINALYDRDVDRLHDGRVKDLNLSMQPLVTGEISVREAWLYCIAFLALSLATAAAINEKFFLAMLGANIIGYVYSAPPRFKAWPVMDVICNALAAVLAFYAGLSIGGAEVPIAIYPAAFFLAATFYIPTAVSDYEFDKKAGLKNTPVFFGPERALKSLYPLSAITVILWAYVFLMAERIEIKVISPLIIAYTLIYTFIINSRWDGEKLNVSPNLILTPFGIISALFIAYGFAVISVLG
# T3 sequence (O28625 entry or part of it D198A): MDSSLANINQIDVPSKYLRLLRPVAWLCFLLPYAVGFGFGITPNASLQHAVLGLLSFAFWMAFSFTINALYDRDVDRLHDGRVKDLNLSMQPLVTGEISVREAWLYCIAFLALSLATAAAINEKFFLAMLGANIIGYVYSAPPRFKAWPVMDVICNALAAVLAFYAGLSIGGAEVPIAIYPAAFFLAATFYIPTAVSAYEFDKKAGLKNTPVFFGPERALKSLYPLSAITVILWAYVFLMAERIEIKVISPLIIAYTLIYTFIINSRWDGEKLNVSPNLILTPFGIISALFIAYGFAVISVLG
# T5 sequence (O28625 entry or part of it D72A): as the sequence (O28625 entry or part of it D198A) above, with D72A, A198D counted along it
# T2 sequence (O28625 entry or part of it D202A): as the sequence (O28625 entry or part of it D198A) above, with A198D, D202A counted along it
# T1 sequence (O28625 entry or part of it R22A): as the sequence (O28625 entry or part of it D198A) above, with R22A, A198D counted along it
# T4 sequence (O28625 entry or part of it N68A): as the sequence (O28625 entry or part of it D198A) above, with N68A, A198D counted along it
# T6 sequence (O28625 entry or part of it K146A): as the sequence (O28625 entry or part of it D198A) above, with K146A, A198D counted along it
smiles,measurement,setting,value
CC(C)=CCC/C(C)=C/COP(=O)(O)OP(=O)(O)O [geranyl diphosphate],no binding detected (N.D.),AfUbiA [1],Four of the mutations completely abolished GPP binding
same,Kd,AfUbiA [2],67 ± 9 µM
same,Kd,AfUbiA [3],144 ± 13 µM
same,no binding detected (N.D.),AfUbiA [4],Four of the mutations completely abolished GPP binding
same,no binding detected (N.D.),AfUbiA [5],Four of the mutations completely abolished GPP binding
same,no binding detected (N.D.),AfUbiA [6],Four of the mutations completely abolished GPP binding
same,Kd,AfUbiA [7],3.2 ± 0.1 µM
